Reference: patent US20080269251A1, “Substituted Pyrazinone Derivatives as Alpha2C-Adrenoreceptor Antagonists” (priority 2005, published 2008)

tested on: not given; assay: not given; details: not given

SMILES | melting point [°C]
O=c1c(NC2CCN(Cc3ccc4ccccc4c3)CC2)nccn1-c1ccc(NCCN2CCOCC2)cc1 [1-92] | 195.3
O=c1c(NC2CCN(Cc3ccc4ccccc4c3)CC2)nccn1CCN1CCCCC1 [2-10] | 161.2
O=C1c2ccccc2C(=O)N1CCCn1ccnc(NC2CCN(Cc3ccc4ccccc4c3)CC2)c1=O [2-19] | 76.5
COC(=O)c1ccc(-n2ccnc(NC3CCN(Cc4ccc5ccccc5c4)CC3)c2=O)cc1 [3-05] | 196.5
O=C1c2ccccc2C(=O)N1CC#CCn1ccnc(NC2CCN(Cc3ccc4ccccc4c3)CC2)c1=O [2-20] | 96.3
O=C1c2ccccc2C(=O)N1C/C=C/Cn1ccnc(NC2CCN(Cc3ccc4ccccc4c3)CC2)c1=O [2-18] | 172.8
O=C(CCN1CCOCC1)Nc1ccc(-n2ccnc(NC3CCN(Cc4ccc5ccccc5c4)CC3)c2=O)cc1 [1-97] | 183.4
O=C(NCCN1CCOCC1)c1ccc(-n2ccnc(NC3CCN(Cc4ccc5ccccc5c4)CC3)c2=O)cc1 [1-91] | 271
O=c1c(NC2CCN(Cc3ccc4ccccc4c3)CC2)nccn1-c1ccsc1 [6-05] | 152.8
C=CCSc1ncccc1C(=O)NCc1ccc(-n2ccnc(NC3CCN(Cc4ccc5ccccc5c4)CC3)c2=O)cc1 [1-102] | 117.7
CCCCNc1cccc(-n2ccnc(NC3CCN(Cc4ccc5ccccc5c4)CC3)c2=O)c1 [1-05] | 117.5
O=c1c(NC2CCN(Cc3ccc4ccccc4c3)CC2)nccn1-c1ccc(CNCC2CCCO2)cc1 (stereo not drawn) [1-79a] | > 300
CCCNC(=O)c1ccc(-n2ccnc(NC3CCN(Cc4ccc5ccccc5c4)CC3)c2=O)cc1 [1-09] | 210.1
O=c1c(NC2CCN(Cc3ccc4ccccc4c3)CC2)nccn1-c1ccncc1 [6-07] | 125.1
O=c1c(NC2CCN(Cc3ccc4ccccc4c3)CC2)nccn1-c1ccc(COCCN2CCOCC2)cc1 [3-13] | 153.9
O=C(c1ccc(-n2ccnc(NC3CCN(Cc4ccc5ccccc5c4)CC3)c2=O)cc1)N1CCOCC1 [2-08] | 271.4
O=c1c(NC2CCN(Cc3ccc4ccccc4c3)CC2)nccn1-c1ccc2c(c1)CN(Cc1ncc[nH]1)CC2 [6-14] | 134.7
CCCC(=O)NCc1ccc(-n2ccnc(NC3CCN(Cc4ccc5ccccc5c4)CC3)c2=O)cc1F [1-26] | 95
O=c1c(NC2CCN(Cc3ccc4ccccc4c3)CC2)nccn1-c1ccc(NCC2CCCO2)cc1 (stereo not drawn) [1-78] | > 300
O=c1c(NC2CCN(Cc3ccc4ccccc4c3)CC2)nccn1-c1cccnc1 [6-06] | > 300
O=C(NCCN1CCCCC1)c1ccc(-n2ccnc(NC3CCN(Cc4ccc5ccccc5c4)CC3)c2=O)cc1 [1-88] | 172.3

target: T1, 5HT-transporter (Homo sapiens, UniProt P31645); assay: Binding experiment for the 5HT-transporter ([3H]paroxetine, human platelet membranes); details: [3H]paroxetine 0.5 nM, 60 min at 25° C., read-out: h-5HTT pIC50 (converted)
T1 construct: Human platelet membranes (Oceanix Biosciences Corporation, Hanover, Md., USA) were thawed; tissue Oceanix Biosciences Corporation, Hanover, Md., USA; host or cells: human platelet membranes
T1 sequence (P31645 whole entry): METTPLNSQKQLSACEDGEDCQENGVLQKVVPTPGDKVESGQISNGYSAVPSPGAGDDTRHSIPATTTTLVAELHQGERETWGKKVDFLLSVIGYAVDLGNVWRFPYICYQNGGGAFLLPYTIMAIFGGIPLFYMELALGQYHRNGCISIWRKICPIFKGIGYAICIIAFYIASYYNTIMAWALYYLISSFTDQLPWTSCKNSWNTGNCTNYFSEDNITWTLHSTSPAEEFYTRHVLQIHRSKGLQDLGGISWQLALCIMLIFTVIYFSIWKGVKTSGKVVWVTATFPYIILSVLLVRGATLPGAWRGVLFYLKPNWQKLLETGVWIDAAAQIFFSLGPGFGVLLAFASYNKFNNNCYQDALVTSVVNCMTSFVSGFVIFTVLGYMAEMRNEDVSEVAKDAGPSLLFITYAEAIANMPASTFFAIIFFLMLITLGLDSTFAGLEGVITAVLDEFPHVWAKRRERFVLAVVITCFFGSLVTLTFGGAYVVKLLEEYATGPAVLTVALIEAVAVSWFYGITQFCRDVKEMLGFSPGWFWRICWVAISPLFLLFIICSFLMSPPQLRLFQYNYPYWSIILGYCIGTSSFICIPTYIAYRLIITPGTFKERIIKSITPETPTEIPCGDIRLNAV
Method in brief: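 Competition binding of [3H]paroxetine to human platelet membranes in Tris-HCl 50 mM with 120 mM NaCl and 5 mM KCl; bound radioligand separated by GF/B filtration and counted.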

SMILES | IC50 [nM]
O=c1c(NC2CCN(Cc3ccc4ccccc4c3)CC2)nccn1-c1ccc(NCCN2CCOCC2)cc1 [1-92] | 12.6
O=c1c(NC2CCN(Cc3ccc4ccccc4c3)CC2)nccn1CCN1CCCCC1 [2-10] | 158
O=C1c2ccccc2C(=O)N1CCCn1ccnc(NC2CCN(Cc3ccc4ccccc4c3)CC2)c1=O [2-19] | 12.6
COC(=O)c1ccc(-n2ccnc(NC3CCN(Cc4ccc5ccccc5c4)CC3)c2=O)cc1 [3-05] | 39.8
O=C1c2ccccc2C(=O)N1CC#CCn1ccnc(NC2CCN(Cc3ccc4ccccc4c3)CC2)c1=O [2-20] | 15.8
O=C1c2ccccc2C(=O)N1C/C=C/Cn1ccnc(NC2CCN(Cc3ccc4ccccc4c3)CC2)c1=O [2-18] | 3.98
O=C(CCN1CCOCC1)Nc1ccc(-n2ccnc(NC3CCN(Cc4ccc5ccccc5c4)CC3)c2=O)cc1 [1-97] | 15.8
O=C(NCCN1CCOCC1)c1ccc(-n2ccnc(NC3CCN(Cc4ccc5ccccc5c4)CC3)c2=O)cc1 [1-91] | 15.8
O=c1c(NC2CCN(Cc3ccc4ccccc4c3)CC2)nccn1-c1ccsc1 [6-05] | 39.8
C=CCSc1ncccc1C(=O)NCc1ccc(-n2ccnc(NC3CCN(Cc4ccc5ccccc5c4)CC3)c2=O)cc1 [1-102] | 15.8
CCCCNc1cccc(-n2ccnc(NC3CCN(Cc4ccc5ccccc5c4)CC3)c2=O)c1 [1-05] | 20
O=c1c(NC2CCN(Cc3ccc4ccccc4c3)CC2)nccn1-c1ccc(CNCC2CCCO2)cc1 (stereo not drawn) [1-79a] | 3.16
CCCNC(=O)c1ccc(-n2ccnc(NC3CCN(Cc4ccc5ccccc5c4)CC3)c2=O)cc1 [1-09] | 20
O=c1c(NC2CCN(Cc3ccc4ccccc4c3)CC2)nccn1-c1ccncc1 [6-07] | 100
O=c1c(NC2CCN(Cc3ccc4ccccc4c3)CC2)nccn1-c1ccc(COCCN2CCOCC2)cc1 [3-13] | 5.01
O=C(c1ccc(-n2ccnc(NC3CCN(Cc4ccc5ccccc5c4)CC3)c2=O)cc1)N1CCOCC1 [2-08] | 63.1
O=c1c(NC2CCN(Cc3ccc4ccccc4c3)CC2)nccn1-c1ccc2c(c1)CN(Cc1ncc[nH]1)CC2 [6-14] | 15.8
CCCC(=O)NCc1ccc(-n2ccnc(NC3CCN(Cc4ccc5ccccc5c4)CC3)c2=O)cc1F [1-26] | 7.94
O=c1c(NC2CCN(Cc3ccc4ccccc4c3)CC2)nccn1-c1ccc(NCC2CCCO2)cc1 (stereo not drawn) [1-78] | 15.8
O=c1c(NC2CCN(Cc3ccc4ccccc4c3)CC2)nccn1-c1cccnc1 [6-06] | 100
O=C(NCCN1CCCCC1)c1ccc(-n2ccnc(NC3CCN(Cc4ccc5ccccc5c4)CC3)c2=O)cc1 [1-88] | 3.16

target: T2, human adrenergic-α2C receptor (Homo sapiens, UniProt P18825); assay: Radioligand binding experiment for hα2C-adrenoceptor ([3H]raulwolscine); details: [3H]raulwolscine 1 nM, 60 minutes at 25° C.; read-out: h-α2C pIC50 (converted)
T2 construct: expressed in transfected cells; host or cells: CHO cells, stably transfected; membrane preparation
T2 sequence (P18825 1-462): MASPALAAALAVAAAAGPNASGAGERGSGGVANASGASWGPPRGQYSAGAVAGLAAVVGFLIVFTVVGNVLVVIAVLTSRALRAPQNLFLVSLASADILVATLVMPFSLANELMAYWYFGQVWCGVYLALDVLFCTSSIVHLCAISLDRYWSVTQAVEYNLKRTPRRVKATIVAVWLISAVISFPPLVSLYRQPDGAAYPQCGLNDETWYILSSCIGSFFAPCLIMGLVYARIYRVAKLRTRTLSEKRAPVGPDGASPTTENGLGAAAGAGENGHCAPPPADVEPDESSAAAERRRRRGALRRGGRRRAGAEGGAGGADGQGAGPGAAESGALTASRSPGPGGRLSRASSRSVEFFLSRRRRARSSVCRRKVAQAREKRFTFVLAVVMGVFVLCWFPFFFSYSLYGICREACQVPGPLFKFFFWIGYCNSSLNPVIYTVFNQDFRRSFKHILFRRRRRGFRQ
Method in brief: (§1)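 CHO membranes expressing human α2A or α2C receptors were incubated with 1 nM [^3H]raulwolscine for 60 min at 25° C in glycylglycine 25 mM, pH 8.0, then filtered. Nonspecific binding was defined with 1 μM oxymetazoline for α2A and 1 μM spiroxatrine for α2C. pIC50 came from sigmoidal competition curves.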

SMILES | IC50 [nM]
O=c1c(NC2CCN(Cc3ccc4ccccc4c3)CC2)nccn1-c1ccc(NCCN2CCOCC2)cc1 [1-92] | 15.8
O=c1c(NC2CCN(Cc3ccc4ccccc4c3)CC2)nccn1CCN1CCCCC1 [2-10] | 25.1
O=C1c2ccccc2C(=O)N1CCCn1ccnc(NC2CCN(Cc3ccc4ccccc4c3)CC2)c1=O [2-19] | 3.98
COC(=O)c1ccc(-n2ccnc(NC3CCN(Cc4ccc5ccccc5c4)CC3)c2=O)cc1 [3-05] | 79.4
O=C1c2ccccc2C(=O)N1CC#CCn1ccnc(NC2CCN(Cc3ccc4ccccc4c3)CC2)c1=O [2-20] | 7.94
O=C1c2ccccc2C(=O)N1C/C=C/Cn1ccnc(NC2CCN(Cc3ccc4ccccc4c3)CC2)c1=O [2-18] | 3.98
O=C(CCN1CCOCC1)Nc1ccc(-n2ccnc(NC3CCN(Cc4ccc5ccccc5c4)CC3)c2=O)cc1 [1-97] | 12.6
O=C(NCCN1CCOCC1)c1ccc(-n2ccnc(NC3CCN(Cc4ccc5ccccc5c4)CC3)c2=O)cc1 [1-91] | 63.1
O=c1c(NC2CCN(Cc3ccc4ccccc4c3)CC2)nccn1-c1ccsc1 [6-05] | 39.8
C=CCSc1ncccc1C(=O)NCc1ccc(-n2ccnc(NC3CCN(Cc4ccc5ccccc5c4)CC3)c2=O)cc1 [1-102] | 63.1
CCCCNc1cccc(-n2ccnc(NC3CCN(Cc4ccc5ccccc5c4)CC3)c2=O)c1 [1-05] | 15.8
O=c1c(NC2CCN(Cc3ccc4ccccc4c3)CC2)nccn1-c1ccc(CNCC2CCCO2)cc1 (stereo not drawn) [1-79a] | 5.01
CCCNC(=O)c1ccc(-n2ccnc(NC3CCN(Cc4ccc5ccccc5c4)CC3)c2=O)cc1 [1-09] | 39.8
O=c1c(NC2CCN(Cc3ccc4ccccc4c3)CC2)nccn1-c1ccncc1 [6-07] | 63.1
O=c1c(NC2CCN(Cc3ccc4ccccc4c3)CC2)nccn1-c1ccc(COCCN2CCOCC2)cc1 [3-13] | 3.98
O=C(c1ccc(-n2ccnc(NC3CCN(Cc4ccc5ccccc5c4)CC3)c2=O)cc1)N1CCOCC1 [2-08] | 25.1
O=c1c(NC2CCN(Cc3ccc4ccccc4c3)CC2)nccn1-c1ccc2c(c1)CN(Cc1ncc[nH]1)CC2 [6-14] | 6.31
CCCC(=O)NCc1ccc(-n2ccnc(NC3CCN(Cc4ccc5ccccc5c4)CC3)c2=O)cc1F [1-26] | 7.94
O=c1c(NC2CCN(Cc3ccc4ccccc4c3)CC2)nccn1-c1ccc(NCC2CCCO2)cc1 (stereo not drawn) [1-78] | 10
O=c1c(NC2CCN(Cc3ccc4ccccc4c3)CC2)nccn1-c1cccnc1 [6-06] | 50.1
O=C(NCCN1CCCCC1)c1ccc(-n2ccnc(NC3CCN(Cc4ccc5ccccc5c4)CC3)c2=O)cc1 [1-88] | 25.1

target: T3, human adrenergic-α2A receptor (Homo sapiens, UniProt P08913); assay: Radioligand binding experiment for hα2A-adrenergic receptor ([3H]raulwolscine); details: [3H]raulwolscine 1 nM, 60 minutes at 25° C.; read-out: h-α2A pIC50 (converted)
T3 construct: expressed in transfected cells; host or cells: CHO cells, stably transfected; membrane preparation
T3 sequence (P08913 1-465): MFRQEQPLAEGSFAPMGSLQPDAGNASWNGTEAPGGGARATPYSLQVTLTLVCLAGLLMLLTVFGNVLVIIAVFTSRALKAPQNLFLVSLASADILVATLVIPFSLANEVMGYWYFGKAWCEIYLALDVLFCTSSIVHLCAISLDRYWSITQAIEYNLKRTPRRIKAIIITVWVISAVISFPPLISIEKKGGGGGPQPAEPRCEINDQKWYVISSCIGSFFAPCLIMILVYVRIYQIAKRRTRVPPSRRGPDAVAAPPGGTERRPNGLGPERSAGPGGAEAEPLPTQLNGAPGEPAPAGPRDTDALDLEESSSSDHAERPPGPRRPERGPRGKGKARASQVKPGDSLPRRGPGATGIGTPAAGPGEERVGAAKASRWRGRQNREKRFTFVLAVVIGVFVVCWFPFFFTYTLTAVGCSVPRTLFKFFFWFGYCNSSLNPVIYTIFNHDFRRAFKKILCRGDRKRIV
Method in brief: as §1

SMILES | IC50 [nM]
O=c1c(NC2CCN(Cc3ccc4ccccc4c3)CC2)nccn1-c1ccc(NCCN2CCOCC2)cc1 [1-92] | 316
O=c1c(NC2CCN(Cc3ccc4ccccc4c3)CC2)nccn1CCN1CCCCC1 [2-10] | 200
O=C1c2ccccc2C(=O)N1CCCn1ccnc(NC2CCN(Cc3ccc4ccccc4c3)CC2)c1=O [2-19] | 126
COC(=O)c1ccc(-n2ccnc(NC3CCN(Cc4ccc5ccccc5c4)CC3)c2=O)cc1 [3-05] | 100
O=C1c2ccccc2C(=O)N1CC#CCn1ccnc(NC2CCN(Cc3ccc4ccccc4c3)CC2)c1=O [2-20] | 398
O=C1c2ccccc2C(=O)N1C/C=C/Cn1ccnc(NC2CCN(Cc3ccc4ccccc4c3)CC2)c1=O [2-18] | 79.4
O=C(CCN1CCOCC1)Nc1ccc(-n2ccnc(NC3CCN(Cc4ccc5ccccc5c4)CC3)c2=O)cc1 [1-97] | 316
O=C(NCCN1CCOCC1)c1ccc(-n2ccnc(NC3CCN(Cc4ccc5ccccc5c4)CC3)c2=O)cc1 [1-91] | 316
O=c1c(NC2CCN(Cc3ccc4ccccc4c3)CC2)nccn1-c1ccsc1 [6-05] | 126
C=CCSc1ncccc1C(=O)NCc1ccc(-n2ccnc(NC3CCN(Cc4ccc5ccccc5c4)CC3)c2=O)cc1 [1-102] | 316
CCCCNc1cccc(-n2ccnc(NC3CCN(Cc4ccc5ccccc5c4)CC3)c2=O)c1 [1-05] | 39.8
O=c1c(NC2CCN(Cc3ccc4ccccc4c3)CC2)nccn1-c1ccc(CNCC2CCCO2)cc1 (stereo not drawn) [1-79a] | 158
CCCNC(=O)c1ccc(-n2ccnc(NC3CCN(Cc4ccc5ccccc5c4)CC3)c2=O)cc1 [1-09] | 200
O=c1c(NC2CCN(Cc3ccc4ccccc4c3)CC2)nccn1-c1ccncc1 [6-07] | 200
O=c1c(NC2CCN(Cc3ccc4ccccc4c3)CC2)nccn1-c1ccc(COCCN2CCOCC2)cc1 [3-13] | 200
O=C(c1ccc(-n2ccnc(NC3CCN(Cc4ccc5ccccc5c4)CC3)c2=O)cc1)N1CCOCC1 [2-08] | 100
O=c1c(NC2CCN(Cc3ccc4ccccc4c3)CC2)nccn1-c1ccc2c(c1)CN(Cc1ncc[nH]1)CC2 [6-14] | 79.4
CCCC(=O)NCc1ccc(-n2ccnc(NC3CCN(Cc4ccc5ccccc5c4)CC3)c2=O)cc1F [1-26] | 398
O=c1c(NC2CCN(Cc3ccc4ccccc4c3)CC2)nccn1-c1ccc(NCC2CCCO2)cc1 (stereo not drawn) [1-78] | 200
O=c1c(NC2CCN(Cc3ccc4ccccc4c3)CC2)nccn1-c1cccnc1 [6-06] | 398
O=C(NCCN1CCCCC1)c1ccc(-n2ccnc(NC3CCN(Cc4ccc5ccccc5c4)CC3)c2=O)cc1 [1-88] | 79.4
